Experimental data taken from patent publication US10675267B2, “Methods for detection and eradication of myeloid leukemia stem cells” (priority 2015, dated 2020).
Entries after “also recorded” stand apart in the source; their conditions may differ.

Experiments:
[1] = system: human CD34+ cells from treated mice (DNAJB1, MCL1, BCL2, BCLX, SF3B1 transcripts); experiment: qRT-PCR / RT-PCR of in vivo splicing alterations in CD34-selected human cells from treated AML PRIMAGRAFT mice
Experimental: For in vivo treatments, a 10 mg/mL stock solution of 17S-FD-895 solubilized in DMSO was used. After randomization, AML-engrafted mice were dosed intravenously with 17S-FD-895 (5-10 mg/kg) or vehicle (for AML-08, vehicle control=15% DMSO in PBS; for AML-37, vehicle control=20% DMSO in PBS) three times over a two-week period, with the first dose given on day 1, the second on day 7, and the third on day 14. For preparation of RNA from human LSC-enriched populations, single cell suspensions from spleen and bone marrow were CD34 double-selected (over two LS selection columns, Miltenyi) and 1-2×10^5 cells were collected in lysis buffer or pooled according to treatment group for serial transplantation assays.
For qRT-PCR analysis of relative total mRNA expression levels or splice isoform-specific expression analyses, cDNA was synthesized using 50 ng-1 […] of template RNA in 20 μL reaction volumes using the First-Strand SUPERSCRIPT™ III Reverse Transcriptase Supermix (Life Technologies) followed by incubation with RNase H according to the manufacturer's protocol and as described previously. All cDNA products were stored at −20° C. Splice isoform-specific primers for PTK2B-202 were designed to bind to unique exon junctions for this transcript, which lacks exon 24. All primers (Table 2) were diluted to 10 μM working dilutions in DNase/RNase-free water. qRT-PCR was performed in duplicate using cDNA (1 μL reverse transcription product per reaction) on an iCycler (Bio-Rad, Hercules, Calif.) using SYBR® GREENER™ Super Mix (Life Technologies) in 25-μL volume reactions containing 0.2 μM of each forward and reverse primer. Cycling conditions were as follows: 50° C. for 2 minutes, then 95° C. for 8 minutes and 30 seconds, followed by 40 cycles of 95° C. for 15 seconds and 60° C. for 60 seconds. Melting curve analysis was performed on each plate according to the manufacturer's instructions. For standard qRT-PCR, human HPRT mRNA transcript levels were used to normalize Ct values obtained for each gene, and relative expression levels were calculated using the 2^−ddCt method. To ensure validity of results, only Ct values <35 were used in gene expression analyses. All primer sets were tested in a no-template control (NTC) reaction containing only water instead of cDNA, and all gave Ct values >35 in NTC reactions.
The 17S-FD-895 dosing regimen was selected as the maximum number of doses possible for the treatment of three experimental groups with the amount of synthesized compound that was available, and is consistent with weekly IV dosing regimens used in clinical trials of spliceosome inhibitory compounds in patients with solid tumors. Animals were euthanized within two hours after delivery of the final dose of 17S-FD-895, and peripheral blood, spleens and bone marrows were collected for analysis of total human cell and stem and progenitor cell engraftment, and for RNA extraction for splice isoform-specific qRT-PCR.
For qRT-PCR analysis of relative total mRNA expression levels or splice isoform-specific expression analyses, cDNA was synthesized using 50 ng-1 […] reaction volumes using the First-Strand SUPERSCRIPT™ III Reverse Transcriptase Supermix (Life Technologies) followed by incubation with RNase H according to the manufacturer's protocol and as described previously (Abrahamsson et al., 2009; Crews et al., 2015). All cDNA products were stored at −20° C. Splice isoform-specific primers for PTK2B-202 were designed to bind to unique exon junctions for this transcript, which lacks exon 24. All primers (Supplemental Experimental Procedures Table) were diluted to 10 ∝M working dilutions in DNase/RNase-free water. qRT-PCR was performed in duplicate using cDNA (1 ∝Λ reverse transcription product per reaction) on an iCycler (Bio-Rad, Hercules, Calif.) using SYBR® GREENER™ Super Mix (Life Technologies) in 25-∝A volume reactions containing 0.2 ∝M of each forward and reverse primer. […]

[2] = system: KG1a cells; experiment: In vitro splicing of endogenous transcripts (qRT-PCR) in KG1a; assay type: cell-based; conditions: KG1a AML cells, compared with MOLM-13
Experimental: For qRT-PCR analysis of relative total mRNA expression levels or splice isoform-specific expression analyses, cDNA was synthesized using 50 ng-1 […] reaction volumes using the First-Strand SUPERSCRIPT™ III Reverse Transcriptase Supermix (Life Technologies) followed by incubation with RNase H according to the manufacturer's protocol and as described previously (Abrahamsson et al., 2009; Crews et al., 2015). All cDNA products were stored at −20° C. Splice isoform-specific primers for PTK2B-202 were designed to bind to unique exon junctions for this transcript, which lacks exon 24. All primers (Supplemental Experimental Procedures Table) were diluted to 10 ∝M working dilutions in DNase/RNase-free water. qRT-PCR was performed in duplicate using cDNA (1 ∝Λ reverse transcription product per reaction) on an iCycler (Bio-Rad, Hercules, Calif.) using SYBR® GREENER™ Super Mix (Life Technologies) in 25-∝A volume reactions containing 0.2 ∝M of each forward and reverse primer. Cycling conditions were as follows: 50° C. for 2 minutes, then 95° C. for 8 minutes and 30 seconds, followed by 40 cycles of 95° C. for 15 seconds and 60° C. for 60 seconds. […] For standard qRT-PCR, human HPRT mRNA transcript levels were used to normalize Ct values obtained for each gene, and relative expression levels were calculated using the 2-ddCt method. […]

[3] = CD34+ cells of individual treated mice versus vehicle
[4] = pooled CD34+ cells used for serial transplantation

CC[C@H](OC)[C@@H](C)[C@H]1O[C@@H]1[C@@H](O)[C@H](C)/C=C/C=C(\C)[C@H]1OC(=O)C[C@H](O)CC[C@@](C)(O)[C@@H](OC(C)=O)/C=C/[C@@H]1C (stereo in doubt) [Formula 17S-FD-895, 17S-FD-895]
BCL2L1-L/S expression ratio ([1]; CD34+ cells of individual treated mice versus control): significant reduction
BCL2-L/S expression ratio [1, 3]: significant reduction
MCL1-L/S expression ratio [1, 3]: significant reduction
SF3B1 mRNA expression ([1]; after treatment, individual mice and pooled samples): unchanged
DNAJB1 intron 2 expression / retention ([1]; human CD34+ cells from treated mice versus vehicle): increased DNAJB1 intron 2 expression; also recorded: increased DNAJB1 intron 2 retention
MCL1-L/S expression ratios, pooled cells [1, 4]: dramatically reduced; also recorded: significantly reduced
MCL1 exon 1-3 splicing pattern (RT-PCR) [1, 4]: MCL1 exon skipping and intron inclusion
DNAJB1 intron 2 levels [2]: to a lesser extent
